Measured values reported in patent US4477463A, “Antiinflammatory and/or analgesic 1-alkyl-4,5-diaryl-2-fluoroalkyl-1H-pyrroles” (E. I. Du Pont de Nemours and Company, priority 1982, dated 1984).
Where two headings read alike, the source gives them in different places.

Assays:
[1] = test system: adjuvant-induced arthritis in rats; assay: Established Adjuvant-Induced Arthritis in Rats; assay type: in vivo, Charles River Lewis male rats; conditions: for percent reduction in paw volume: at 9 mg/kg; for ED50: Rattus norvegicus, read-out: Adjuvant Arthritic ED50
[2] = test system: phenylquinone-induced writhing in mice; assay: Phenylquinone Writhing Test; assay type: in vivo, female white mice; conditions: Mus musculus, read-out: Phenylquinone Writhing (PQW) ED50
Description: Phenylquinone Writhing Test
A test compound suspended in 1% methylcellulose was given orally to fasted (17-21 hours) female white mice, 5-20 animals per double blind test. Aqueous (0.01% phenyl-p-benzoquinone) phenylquinone, 0.20 ml per mouse, was injected intraperitoneally 6 minutes before observations were begun.

[3] = oral, daily for 7 days, read one day after last dose
[4] = effective analgesic dose for 50% of the mice, oral, 0.01% phenylquinone 0.20 ml i.p.
[5] = ED50% decrease from control paw volume (uninjected, left hind paw), oral, daily for 7 days, read one day after last dose

Row | Compound | percent reduction in paw volume [1, 3] [%] | ED50 [2, 4] [mg/kg] | ED50 [1, 5] [mg/kg] | ED50 ([2]; po) [mg/kg] | ED50 ([1]; po) [mg/kg]
1 | Cn1c(C(F)(F)F)cc(-c2ccc(Cl)cc2)c1-c1ccc(Cl)cc1 [Example 4] | 29 |  |  |  | 
2 | CSc1ccc(-c2c(-c3ccc(F)cc3)cc(C(F)(F)F)n2C)cc1 [Example 6, 4-(4-fluorophenyl)-1-methyl-5-(4-methylthiophenyl)-2-trifluoromethyl-1H-pyrrole] |  | 16 | 1.8 |  | 
3 | CCCCC1C(=O)N(c2ccccc2)N(c2ccccc2)C1=O [Phenylbutazone, reference compound] |  | 80 | 10 |  | 
4 | Cn1c(C(F)(F)F)cc(-c2ccc(F)cc2)c1-c1ccc(S(C)(=O)=O)cc1 [Example 7, 4-(4-fluorophenyl)-1-methyl-5-(4-methylsulfonylphenyl)-2-trifluoromethyl-1H-pyrrole] |  |  | 3.5 |  | 
5 | CCn1c(C(F)(F)F)cc(-c2ccc(OC)cc2)c1-c1ccc(OC)cc1 [Example 3] |  | 47 | 18 |  | 
6 | COc1ccc2c(c1)c(CC(=O)O)c(C)n2C(=O)c1ccc(Cl)cc1 [Indomethacin, reference compound] |  |  |  | 0.35 | 0.3
7 | Cc1ccc(-c2cc(C(F)(F)F)n(C)c2-c2ccc(C)cc2)cc1 [Example 5] | 28 | 18 |  |  | 
8 | COc1ccc(-c2cc(C(F)(F)F)n(C)c2-c2ccc(OC)cc2)cc1 [Example 1, 4,5-Bis(4-methoxyphenyl)-1-methyl-2-trifluoromethyl-1H-pyrrole] |  | 16 | 1.25 |  | 
9 | COc1ccc(-c2cc(C(F)(F)C(F)(F)F)n(C)c2-c2ccc(OC)cc2)cc1 [Example 2, 4,5-bis(4-methoxyphenyl)-1-methyl-2-pentafluoroethyl-1H-pyrrole] | 32 | 1.8 |  |  | 
10 | CC(C)Cc1ccc(C(C)C(=O)O)cc1 (stereo not shown) [Ibuprofen, reference compound] |  | 10 | 100 |  | 
11 | CSc1ccc(-c2cc(C(F)(F)F)n(C)c2-c2ccc(SC)cc2)cc1 [Example 8, 1-methyl-4,5-bis(4-methylthiophenyl)-2-trifluoromethyl-1H-pyrrole] |  | > 108 | 1.8 |  | 
12 | CC(=O)Oc1ccccc1C(=O)O [Aspirin, reference compound] |  |  |  | 135 | 305
